Source: patent US20210253568A1, “AZAINDOLE DERIVATIVES AS RHO-KINASE INHIBITORS” (CHIESI FARMACEUTICI S.p.A., priority 2018, published 2021)

Experiments:
ROCK 2 = ROCK 2 (Homo sapiens, UniProt O75116); assay: In vitro Rho kinase inhibitory activity assay (ADP-Glo), Rho kinase 2; assay type: biochemical; conditions: Ki by Cheng-Prusoff from IC50; 10 μM ATP, 25° C., expressed as range of activity
Description: (§1) The effectiveness of compounds of the present invention to inhibit Rho kinase activity can be determined in a 10 μl assay containing 40 mM Tris pH7.5, 20 mM MgCl2 0.1 mg/mi BSA, 50 μM DTT and 2.5 μM peptide substrate (Myelin Basic Protein) using an ADP-Glo kit (Promega). Compounds were dissolved in DMSO such that the final concentration of DMSO was 1% in the assay. All reactions/incubations are performed at 25° C. Compound (2 ul) and either Rho kinase 1 or 2 (4 μl) were mixed and incubated for 30 mins. Reactions were initiated by addition of ATP (4 μl) such that the final concentration of ATP in the assay was 10 μM. After a 1 hour incubation 10 μl of ADP-Glo Reagent was added and after a further 45 minute incubation 20 ul of Kinase Detection Buffer was added and the mixture incubated for a further 30 minutes. The luminescent signal was measured on a luminometer. […] Compounds were tested in dose-response format and the inhibition of kinase activity was calculated at each concentration of compound. To determine the IC50 (concentration of compound required to inhibit 50% of the enzyme activity) data were fit to a plot of % inhibition vs Log10 compound concentration using a sigmoidal fit with a variable slope and fixing the maximum to 100% and the minimum to 0%. To determine the Ki values the Cheng-Prusoff equation was utilized (Ki=IC50/(1+[S]/Km).

ROCK 1 = ROCK 1 (Homo sapiens, UniProt Q13464); assay: In vitro Rho kinase inhibitory activity assay (ADP-Glo), Rho kinase 1; assay type: biochemical; conditions: Ki by Cheng-Prusoff from IC50; 10 μM ATP, 25° C., expressed as range of activity
ROCK 1, sequence (Q13464 whole entry): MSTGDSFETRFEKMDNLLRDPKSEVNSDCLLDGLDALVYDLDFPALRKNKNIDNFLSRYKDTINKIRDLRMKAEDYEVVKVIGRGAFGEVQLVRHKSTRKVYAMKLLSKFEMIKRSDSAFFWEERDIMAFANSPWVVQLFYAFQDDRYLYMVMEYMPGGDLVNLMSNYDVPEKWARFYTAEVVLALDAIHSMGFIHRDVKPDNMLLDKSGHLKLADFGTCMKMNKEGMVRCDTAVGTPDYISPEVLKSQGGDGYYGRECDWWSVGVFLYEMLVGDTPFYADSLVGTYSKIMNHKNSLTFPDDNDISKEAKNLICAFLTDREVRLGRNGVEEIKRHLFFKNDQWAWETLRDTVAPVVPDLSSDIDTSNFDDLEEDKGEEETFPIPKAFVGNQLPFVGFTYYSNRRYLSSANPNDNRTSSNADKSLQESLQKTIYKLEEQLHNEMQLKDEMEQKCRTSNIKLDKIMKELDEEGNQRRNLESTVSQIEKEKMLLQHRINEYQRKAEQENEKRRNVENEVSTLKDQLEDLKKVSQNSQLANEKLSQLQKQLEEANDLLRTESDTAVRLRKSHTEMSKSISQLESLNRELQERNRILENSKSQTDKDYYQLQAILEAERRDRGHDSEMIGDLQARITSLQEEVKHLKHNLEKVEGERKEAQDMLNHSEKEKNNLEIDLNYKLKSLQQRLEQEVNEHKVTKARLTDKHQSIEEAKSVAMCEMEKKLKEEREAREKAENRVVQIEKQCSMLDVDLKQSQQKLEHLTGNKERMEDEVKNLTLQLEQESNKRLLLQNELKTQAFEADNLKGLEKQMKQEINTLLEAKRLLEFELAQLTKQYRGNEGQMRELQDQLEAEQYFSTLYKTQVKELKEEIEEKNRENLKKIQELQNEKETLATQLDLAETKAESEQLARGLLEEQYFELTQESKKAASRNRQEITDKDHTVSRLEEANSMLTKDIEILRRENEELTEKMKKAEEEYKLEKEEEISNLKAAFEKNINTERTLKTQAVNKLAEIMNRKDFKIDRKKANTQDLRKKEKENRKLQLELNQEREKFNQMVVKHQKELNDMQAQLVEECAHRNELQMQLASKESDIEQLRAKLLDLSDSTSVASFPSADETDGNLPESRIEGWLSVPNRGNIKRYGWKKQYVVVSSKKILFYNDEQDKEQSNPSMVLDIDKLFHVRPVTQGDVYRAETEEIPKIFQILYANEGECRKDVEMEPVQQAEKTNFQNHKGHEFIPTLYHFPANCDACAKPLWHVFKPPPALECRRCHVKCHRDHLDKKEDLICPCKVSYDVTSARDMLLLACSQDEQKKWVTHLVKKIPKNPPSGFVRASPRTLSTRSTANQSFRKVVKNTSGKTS
Description: as §1

ROCK 2, sequence (O75116 whole entry): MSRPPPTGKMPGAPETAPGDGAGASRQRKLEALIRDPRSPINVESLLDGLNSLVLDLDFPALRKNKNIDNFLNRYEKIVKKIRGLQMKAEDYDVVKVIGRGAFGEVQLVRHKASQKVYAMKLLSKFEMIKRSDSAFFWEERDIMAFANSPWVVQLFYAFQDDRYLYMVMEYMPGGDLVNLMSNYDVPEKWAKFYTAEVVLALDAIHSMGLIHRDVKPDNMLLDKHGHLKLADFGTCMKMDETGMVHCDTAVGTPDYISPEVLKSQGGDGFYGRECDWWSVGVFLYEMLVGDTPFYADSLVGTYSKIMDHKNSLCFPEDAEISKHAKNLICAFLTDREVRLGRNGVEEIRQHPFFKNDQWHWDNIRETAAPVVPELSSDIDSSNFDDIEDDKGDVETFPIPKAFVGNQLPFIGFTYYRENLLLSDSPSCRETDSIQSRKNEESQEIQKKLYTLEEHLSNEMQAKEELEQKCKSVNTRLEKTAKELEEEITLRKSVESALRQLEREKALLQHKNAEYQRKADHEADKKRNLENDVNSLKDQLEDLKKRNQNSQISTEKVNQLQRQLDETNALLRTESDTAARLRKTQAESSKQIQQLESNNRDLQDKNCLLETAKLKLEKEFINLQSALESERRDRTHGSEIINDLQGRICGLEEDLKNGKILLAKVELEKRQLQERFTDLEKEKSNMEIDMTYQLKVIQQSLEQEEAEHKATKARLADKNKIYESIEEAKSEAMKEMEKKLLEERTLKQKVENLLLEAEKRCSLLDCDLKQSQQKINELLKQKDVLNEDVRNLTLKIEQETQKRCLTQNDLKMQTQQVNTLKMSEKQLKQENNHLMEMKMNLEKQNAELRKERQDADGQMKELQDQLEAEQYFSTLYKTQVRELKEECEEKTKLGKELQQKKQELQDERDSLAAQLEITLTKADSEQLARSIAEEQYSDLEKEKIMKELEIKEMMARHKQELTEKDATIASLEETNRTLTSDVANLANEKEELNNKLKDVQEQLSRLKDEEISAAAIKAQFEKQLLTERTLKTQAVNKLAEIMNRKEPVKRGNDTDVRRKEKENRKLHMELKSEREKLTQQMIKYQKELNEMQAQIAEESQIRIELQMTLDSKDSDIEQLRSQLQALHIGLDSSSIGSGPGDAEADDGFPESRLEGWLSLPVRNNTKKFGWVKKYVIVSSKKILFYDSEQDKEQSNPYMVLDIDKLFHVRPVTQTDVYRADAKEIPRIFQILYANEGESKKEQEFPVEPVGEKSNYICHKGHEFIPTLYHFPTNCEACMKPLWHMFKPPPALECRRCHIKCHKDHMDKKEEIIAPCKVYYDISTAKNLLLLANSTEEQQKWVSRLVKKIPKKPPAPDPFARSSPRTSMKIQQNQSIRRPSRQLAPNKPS

Ki (ROCK 2) [nM]	Ki (ROCK 1) [nM]	SMILES
< 3	< 3	c1cc(-c2c[nH]c3nccc(Oc4ccc5c(c4)CNCC5)c23)cc(NCc2nccs2)n1 [Example 35, 4-(4-((1,2,3,4-tetrahydroisoquinolin-7-yl)oxy)-1H-pyrrolo[2,3-b]pyridin-3-yl)-N-(thiazol-2-ylmethyl)pyridin-2-amine]
< 3	< 3	c1cc(-c2c[nH]c3nccc(Oc4ccc5c(c4)CNCC5)c23)cc(NCC2CC2)n1 [Example 36, N-(cyclopropylmethyl)-4-(4-((1,2,3,4-tetrahydroisoquinolin-7-yl)oxy)-1H-pyrrolo[2,3-b]pyridin-3-yl)pyridin-2-amine]
< 3	3 to 30	Cc1ccc(CNc2cc(-c3c[nH]c4nccc(Oc5ccc6c(c5)CNCC6)c34)ccn2)nc1 [Example 37, N-((5-methylpyridin-2-yl)methyl)-4-(4-((1,2,3,4-tetrahydroisoquinolin-7-yl)oxy)-1H-pyrrolo[2,3-b]pyridin-3-yl)pyridin-2-amine]
< 3	< 3	c1cc(-c2c[nH]c3nccc(Oc4ccc5c(c4)CNCC5)c23)cc(NCC2CCOCC2)n1 [Example 38, N-((tetrahydro-2H-pyran-4-yl)methyl)-4-(4-((1,2,3,4-tetrahydroisoquinolin-7-yl)oxy)-1H-pyrrolo[2,3-b]pyridin-3-yl)pyridin-2-amine]
< 3	3 to 30	O=C(Nc1cc(-c2c[nH]c3nccc(Oc4ccc5c(c4)CNCC5)c23)ccn1)C1CC1 [Example 39, N-(4-(4-((1,2,3,4-tetrahydroisoquinolin-7-yl)oxy)--1H-pyrrolo[2,3-b]pyridin3-yl)pyridin-2-yl)cyclopropanecarboxamide]
< 3	< 3	O=C(Nc1cc(-c2c[nH]c3nccc(Oc4ccc5c(c4)CNCC5)c23)ccn1)C1CCCCC1 [Example 40, N-(4-(4-((1,2,3,4-tetrahydroisoquinolin-7-yl)oxy)-1H-pyrrolo[2,3-b]pyridin-3-yl)pyridin-2-yl)cyclohexanecarboxamide]
< 3	< 3	O=C(Nc1cc(-c2c[nH]c3nccc(Oc4ccc5c(c4)CNCC5)c23)ccn1)C1CCOCC1 [Example 41, N-(4-(4-((1,2,3,4-tetrahydroisoquinolin-7-yl)oxy)-1H-pyrrolo[2,3-b]pyridin-3-yl)pyridin-2-yl)tetrahydro-2H-pyran-4-carboxamide]
< 3	< 3	CC(C)OCC(=O)Nc1cc(-c2c[nH]c3nccc(Oc4ccc5c(c4)CNCC5)c23)ccn1 [Example 42, 2-isopropoxy-N-(4-(4-((1,2,3,4-tetrahydroisoquinolin-7-yl)oxy)-1H-pyrrolo[2,3-b]pyridin-3-yl)pyridin-2-yl)acetamide]
< 3	3 to 30	CC1(C(=O)Nc2cc(-c3c[nH]c4nccc(Oc5ccc6c(c5)CNCC6)c34)ccn2)CC1 [Example 44, 1-methyl-N-(4-(4-((1,2,3,4-tetrahydroisoquinolin-7-yl)oxy)-1H-pyrrolo[2,3-b]pyridin-3-yl)pyridin-2-yl)cyclopropanecarboxamide]
< 3	< 3	CN(C(=O)Nc1cc(-c2c[nH]c3nccc(Oc4ccc5c(c4)CNCC5)c23)ccn1)C1CCCCC1 [Example 47, 1-cyclohexyl-1-methyl-3-(4-(4-((1,2,3,4-tetrahydroisoquinolin-7-yl)oxy)-1H-pyrrolo[2,3-b]pyridin-3-yl)pyridin-2-yl)urea]
< 3	3 to 30	CN(C(=O)Nc1cc(-c2c[nH]c3nccc(Oc4ccc5c(c4)CNCC5)c23)ccn1)C1CCOCC1 [Example 48, 1-methyl-1-(tetrahydro-2H-pyran-4-yl)-3-(4-(4-((1,2,3,4-tetrahydroisoquinolin-7-yl)oxy)-1H-pyrrolo[2,3-b]pyridin-3-yl)pyridin-2-yl)urea]

Continued, compound first:

SMILES	Ki (ROCK 2) [nM]	Ki (ROCK 1) [nM]
c1nc(NCc2nccs2)cc(-c2c[nH]c3nccc(Oc4ccc5c(c4)CNCC5)c23)n1 [Example 30, 6-(4-((1,2,3,4-tetrahydroisoquinolin-7-yl)oxy)-1H-pyrrolo[2,3-b]pyridin-3-yl)-N-(thiazol-2-ylmethyl)pyrimidin-4-amine]	< 3	< 3
NCc1ccc(Oc2ccnc3[nH]cc(-c4cc(NCc5ccccc5)ncn4)c23)c(F)c1 [Example 31, 6-(4-(4-(aminomethyl)-2-fluorophenoxy)-1H-pyrrolo[2,3-b]pyridin-3-yl)-N-benzylpyrimidin-4-amine]	< 3	< 3
NCc1ccc(Oc2ccnc3[nH]cc(-c4ccnc(NCc5ccccc5)n4)c23)c(F)c1 [Example 32, 4-(4-(4-(aminomethyl)-2-fluorophenoxy)-1H-pyrrolo[2,3-b]pyridin-3-yl)-N-benzylpyrimidin-2-amine]	< 3	3 to 30
NCc1ccc(Oc2ccnc3[nH]cc(-c4ccnc(NCc5ccccc5)c4)c23)c(F)c1 [Example 33, 4-(4-(4-(aminomethyl)-2-fluorophenoxy)-1H-pyrrolo[2,3-b]pyridin-3-yl)-N-benzylpyridin-2-amine]	< 3	3 to 30
NCc1ccc(Oc2ccnc3[nH]cc(-c4cnc(NC(=O)Cc5ccccc5)s4)c23)cc1 [Example 34, N-(5-(4-(4-(aminomethyl)phenoxy)-1H-pyrrolo[2,3-b]pyridin-3-yl)thiazol-2-yl)-2-phenylacetamide]	< 3	3 to 30
O=C(CN1CCCCC1)Nc1cc(-c2c[nH]c3nccc(Oc4ccc5c(c4)CNCC5)c23)ccn1 [Example 43, 2-(piperidin-1-yl)-N-(4-(4-((1,2,3,4-tetrahydroisoquinolin-7-yl)oxy)-1H-pyrrolo[2,3-b]pyridin-3-yl)pyridin-2-yl)acetamide]	< 3	< 3
NC(C(=O)Nc1cc(-c2c[nH]c3nccc(Oc4ccc5c(c4)CNCC5)c23)ccn1)c1ccccc1 (stereo not drawn) [Example 45, 2-amino-2-phenyl-N-(4-(4-((1,2,3,4-tetrahydroisoquinolin-7-yl)oxy)-1H-pyrrolo[2,3-b]pyridin-3-yl)pyridin-2-yl)acetamide]	< 3	< 3
CC1(C)CCN(C(=O)Nc2cc(-c3c[nH]c4nccc(Oc5ccc6c(c5)CNCC6)c34)ccn2)CC1 [Example 46, 4,4-dimethyl-N-(4-(4-((1,2,3,4-tetrahydroisoquinolin-7-yl)oxy)-1H-pyrrolo[2,3-b]pyridin-3-yl)pyridin-2-yl)piperidine-1-carboxamide]	< 3	3 to 30
c1ccc(CNc2cc(-c3c[nH]c4nccc(Oc5cnc6c(c5)CNCC6)c34)ccn2)cc1 [Example 49, N-benzyl-4-(4-((5,6,7,8-tetrahydro-1,6-naphthyridin-3-yl)oxy)-1H-pyrrolo[2,3-b]pyridin-3-yl)pyridin-2-amine]	> 30	> 30
O=C(Nc1cc(-c2c[nH]c3nccc(Oc4ccc5c(c4)CNCC5)c23)ncn1)c1ccccc1 [Example 50, N-(6-(4-((1,2,3,4-tetrahydroisoquinolin-7-yl)oxy)-1H-pyrrolo[2,3-b]pyridin-3-yl)pyrimidin-4-yl)benzamide]	< 3	3 to 30
c1ccc(CNc2cncc(-c3c[nH]c4nccc(Oc5ccc6c(c5)CNCC6)c34)c2)cc1 [Example 51, N-benzyl-5-(4-((1,2,3,4-tetrahydroisoquinolin-7-yl)oxy)-1H-pyrrolo[2,3-b]pyridin-3-yl)pyridin-3-amine]	< 3	3 to 30
C[C@@H](Nc1cc(-c2c[nH]c3nccc(Oc4ccc5c(c4)CNCC5)c23)ncn1)c1ccccc1 [Example 52, (R)-N-(1-phenylethyl)-6-(4-((1,2,3,4-tetrahydroisoquinolin-7-yl)oxy)-1H-pyrrolo[2,3-b]pyridin-3-yl)pyrimidin-4-amine]	< 3	< 3
c1ccc(CCNc2cc(-c3c[nH]c4nccc(Oc5ccc6c(c5)CNCC6)c34)ncn2)cc1 [Example 53, N-phenethyl-6-(4-((1,2,3,4-tetrahydroisoquinolin-7-yl)oxy)-1H-pyrrolo[2,3-b]pyridin-3-yl)pyrimidin-4-amine]	< 3	< 3
C[C@H](Nc1cc(-c2c[nH]c3nccc(Oc4ccc5c(c4)CNCC5)c23)ncn1)c1ccccc1 [Example 54, (S)-N-(1-phenylethyl)-6-(4-((1,2,3,4-tetrahydroisoquinolin-7-yl)oxy)-1H-pyrrolo[2,3-b]pyridin-3-yl)pyrimidin-4-amine]	< 3	3 to 30
c1cncc(CCNc2cc(-c3c[nH]c4nccc(Oc5ccc6c(c5)CNCC6)c34)ncn2)c1 [Example 55, N-(2-(pyridin-3-yl)ethyl)-6-(4-((1,2,3,4-tetrahydroisoquinolin-7-yl)oxy)-1H-pyrrolo[2,3-b]pyridin-3-yl)pyrimidin-4-amine]	< 3	< 3
c1ccc(CNc2cc(-c3c[nH]c4ncnc(Oc5ccc6c(c5)CNCC6)c34)ccn2)cc1 [Example 56, N-benzyl-4-(4-((1,2,3,4-tetrahydroisoquinolin-7-yl)oxy)-7H-pyrrolo[2,3-d]pyrimidin-5-yl)pyridin-2-amine]	< 3	3 to 30
